Reference: patent US20100240868A1, “Composition and Method for a Producing Stable Amyloid Beta Oligomers of High Molecular Weight” (priority 2005, published 2010)

Assays:
[1] = SDS-PAGE analysis of glutaraldehyde cross-linked samples (oligomer formation and storage stability); type: physicochemical
Procedure: The soluble Aβ oligomers were cross-linked with glutaraldehyde, incubated for 10 minutes at room temperature and then quenched with 1M glycine, 1M Tris-HCl pH 7.5. Cross-linked samples were then diluted to a final concentration of 0.02 μg/μL, in Tris-glycine SDS sample buffer. For analysis, 0.28 μg Aβ (nominal concentration) in either monomeric or oligomeric form was separated by electrophoresis at 125V for about 100 minutes using a 4% to 20% tris-glycine gel (Invitrogen, Carlsbad, Calif.). Gels were then silver stained to visualize the size distribution of the soluble Aβ oligomers. For glutaraldehyde concentration optimization, HFIP-dried Aβ42 or HFIP-dried Aβ40 was solubilized in DMSO (20 mg/mL, 4.4 mM), added to 50 mM phosphate, pH 9.0, to a final concentration of 1.8 mg/mL (400 μM) and incubated at 4° C. overnight, protected from light. […]
As set forth above in Examples 1-4, Aβ42 forms soluble Aβ oligomers in 50 mM phosphate, pH 9.0 buffer during storage at 2° C. to 8° C. However, the optimal concentration for formation, biological activity and storage stability of these oligomeric species during storage was not determined. […] These cross-linked species were not disrupted in the presence of SDS, and therefore, the appropriate size distribution could be determined by SDS-PAGE. […]

PC-12 cells = experiment: PC-12 MTT reduction assay; type: cell-based; settings: for MTT reduction: PC-12 cells
Procedure: PC-12 cells were plated at 30,000 cells/well and allowed to grow overnight at 37° C./5% CO2. Soluble Aβ oligomers or vehicle were added to cells at concentrations of 1 μM and 5 μM. After a four hour incubation at 37° C./5% CO2, the MTT reduction assay was performed (Lambert et al., 2001, J. Neurochem. 79, 595-605). Briefly, MTT (10 μL, 5 mg/mL) was added to each well and allowed to incubate for four hours. A solubilization buffer (100 μL, 10% SDS in 0.01 N HCl) was added and the plate was incubated at 37° C./5% CO2 overnight. The assay was then quantified at 595 nm on a Tecan Spectrafluor Plus plate reader (Tecan Systems, San Jose, Calif.).
In this experiment, Aβ42 was prepared at concentrations of 1 mM, 850 μM, 650 μM, 450 μM, 250 μM and 100 μM in 50 mM phosphate pH 9.0 buffer as described in the Example 8. After 7 days of incubation at 4° C., samples were tested by the MTT assay to determine bioactivity.

In the case of “Aβ40: HFIP-dried Aβ40 monomer peptide, solubilized in DMSO and incubated in 50 mM phosphate, pH 9.0 [reference compound]”, the oligomer formation ([1]; 400 μM in 50 mM phosphate, pH 9.0, 24 hour incubation at 4° C.) is reported as “primarily stays monomeric and does not form oligomers”.

In the case of Aβ peptide (1-42) [Aβ42], the “storage stability of oligomeric (150 kDa) species” value ([1]; stock concentration 450 μM in 50 mM phosphate, pH 9.0 buffer, 1, 4 and 7 days at 4° C., 0.5% glutaraldehyde cross-linking) is reported as “can be stored for seven days at 4 °C”, the MTT reduction (PC-12 cells; stock concentrations 450 μM to 650 μM in 50 mM phosphate pH 9.0, 7 days at 4° C., test concentration 5 μM, 4 h incubation) is reported as “about 55%” and the MTT reduction (PC-12 cells; stock concentrations below 450 μM and above 650 μM in 50 mM phosphate pH 9.0, 7 days at 4° C., tested at 1 μM and 5 μM) is reported as 80-105%. The bioactivity after storage (PC-12 cells; stock concentrations of 450 μM to 650 μM in 50 mM phosphate, pH 9.0 buffer, storage at 2-8° C.) was “remain bioactive for up to seven days”.
